Experimental data taken from US6727284B2 (priority 1997, dated 2004).
“Also recorded” adds a separate entry of the source.

Columns and labels:
[1] = Plasma DCA levels by HPLC in pediatric patients given bolus plus 24 h infusion after cardiopulmonary bypass; format: in vivo, human; conditions: bolus 100 mg/kg into proximal aorta, then infusion 12.5 mg/kg/hr for 24 hours, therapeutic range 0.2-1 mM, FIG. 1
Protocol: This example describes the use of dichloroacetate administered in a bolus followed by infusion for 24 hrs in pediatric patients after cardiopulmonary bypass.
DCA, in a bolus of 100 mg/kg of 10 mg/ml solution ([…] bolus) is injected into the proximal aorta immediately prior to discontinuing the aortic cross-clamp. Immediately thereafter, an infusion of DCA at 12.5 mg/kg/hr is initiated and run for 24 hours or longer. Based on the pharmacokinetics of DCA, this dosage regiment is designed to continuous maintain plasma levels of DCA in the therapeutic range of [0.2-1 mM]—in contrast to transient therapeutic levels.
Blood samples are collected from the indwelling lines of patients in citrate-containing tubes. These samples are centrifuged to separate the plasma and frozen. The frozen samples are later analyzed for DCA concentration by using a high performance liquid chromatography technique (HPLC). See generally Thannikkuto et al., “Dichloracetate (DCA) stimulates pyruvate dehydrogenase complex (PDC) activity in hearts of patients undergoing coronary artery bypass grafting (CABG)” Can. J. Cardiol. 10(suppl. C):130C (1994). Briefly, the analysis was performed on a lonoSpher A (250×4.6 mm L X ID) column accompanied by a guard column AX. Both of the columns were purchased from Chrompack Canada. The mobile phase used was 10^−3 M pyromellitate buffer (pH 3.8-4.0) at a flow rate of […]. […]

[2] = cited from earlier work
[3] = Side-effects of dichloroacetate in patients; format: in vivo, human
Source text: Higher dosages are permitted.

Q: With `O=C(O)C(Cl)Cl` [dichloroacetate] as the compound, how does the “patient blood (plasma) levels of dichloroacetate” value [1] read?
A: The value was “continuously maintained patient blood levels of dichloroacetate in the therapeutic range”.

Q: What about the “patient blood (plasma) levels of dichloroacetate” value ([1]; listed as dichloro acetate) of the same compound?
A: The value was “maintained. at high (and therefore therapeutic) levels over a 24 hour period”.

Q: What about the half-life ([2]; in vivo) of the same compound?
A: Its half-life is “approximately 40 minutes”.

Q: What about the “time blood levels stay in the therapeutic range” value ([2]; single bolus administration) of the same compound?
A: The value was “less than one hour”.

Q: What about the side-effects [3] of the same compound?
A: Its side-effects is “does not have significant sideeffects; also recorded: some patients experience mild drowsiness”.
